The text below walks through data of US20240400986A1, “MEMBRANE BOUND COMPOSITIONS AND METHODS RELATING TO SAME” (FLAGSHIP PIONEERING INNOVATIONS VII, LLC, priority 2021, published 2024).

For series [1], the system named is neuronal cells. Description: Gigasome-mediated extraction of stress granule-associated protein HuR (fixed plates, confocal). Format: cell-based, human. On the procedure:
For this paradigm, cells were treated with a low sodium arsenite concentration of 5 μM either alone or in combination with the proteasome inhibitor MG-132 at 0.2 μM. A vehicular control amount of DMSO was added to the media to comparatively study cargo signals within cells and gigasomes. Treatments were carried out in reduced serum-containing media for 24 hours to mimic a chronic exposure to arsenite. The presence of the stress-granule-related cargo within cells and in gigasomes was characterized and quantified by confocal microscopy analysis of 4% paraformaldehyde. Non-specific labeling was blocked by incubation with 5% normal goat serum in PBS in the presence of 0.1% Triton X-100, for 2 h at room temperature, followed by immunolabeling with an antibody against the RNA-binding protein HuR (see Table 12) and incubation with Alexa Fluor® 568 secondary antibodies. Phalloidin Alexa Fluor® 488 was used to mark the proximal plasma membrane. Nuclei were counterstained with DAPI.
Images were captured using a Zeiss LSM 900 confocal microscope and a 40× objective. For analysis, 10×16-bit images per well were processed to obtain a final total range of 75-200 cells. Composite images were separated in the different channels. The background was subtracted from the red cargo-related channel, as described in Example 13a. The nuclear signal in the blue channel was thresholded using the “Yen” autothreshold algorithm. To measure the nuclear-to-cytosolic translocation of the stress-granule-related protein cargo upon treatment, firstly, the cargo-related nuclear signal was subtracted from the respective red channel image by creating a nuclear selection from the thresholded blue channel image, which was added to ImageJ Manager. The nuclear selection was then transferred to the background-subtracted red channel and the nuclear cargo signal was removed from the image leaving only the cytosolic signal. The cleared red channel image was thresholded using the “default” autothreshold algorithm for downstream particle analysis. To measure the cytosolic cargo signal, a cellular mask was then generated by thresholding the Green/F-actin channel using the “Li” autothreshold method. A cytosolic selection was created, added to ImageJ Manager, and transferred to the background subtracted, nuclear-cleared red channel image. The cytosolic cargo signal (integrated density) was measured and normalized to the number of nuclei counted in each field. Particle analysis was performed as described in Example 13a, using the thresholded green channel to identify particles of interest by filtering by area and circularity and re-directing to the blue and red channel for absence of nuclear signal and eventual presence of disease-related cargo, respectively. The quantity or distribution of objects obtained from the particle analysis was obtained as described in Example 13a.

Series [2] relates to neuronal cell line derived from human neuroblastoma. Particulars: neuronal cells, dose 100 nM, 24 hours.
Experimental: For the screening, a total of 99 compounds (TargetMol) were divided in 5 groups. Each group included an untreated condition, a vehicular DMSO control, and a known high-gigasome producing condition to comparatively study gigasome production rates. As a cell death control group, 500 nM Staurosporine was added to induce apoptosis. Cultures were incubated for 24 hours under gigasome inducing conditions at concentrations ranging between 10 nM and 10,000 nM. Before the end of the treatment, live neuronal cultures were imaged. The Zeiss ZEN Blue software was used to distribute imaging fields of view (positions) to create an unbiased imaging sample of a well. 5 images were taken using a Zeiss LSM 900 confocal microscope. […] The BioApps ZEN software package was used to perform cell nucleus segmentation and counting. After 24 hours, gigasomes were harvested from the cell culture media by gently removing from the top of each 96-well ⅔ of the total volume without disturbing the cell layer (containing the settled gigasomes) and by adding to each well the same amount of PBS. […] Cells remaining in the 96-well plates were assessed for viability using CellTiter-Glo (Promega).
Series [3] concerns cardiomyocytic cell line derived from human ventricular heart tissue. Briefly: Cell viability in cardiomyocyte compound screen (CellTiter-Glo). It counts as cell-based. As to conditions: human, 24 h. Background: Cellular ATP, detected with luciferase, serves as a proxy for viable cell number.
Text: Cells were stained with Hoechst 34580, CellTracker Green/CellMask Green Actin and MitoTracker Deep Red to detect nuclear material, cytoplasm/F-actin, and mitochondria, respectively, and cultured in poly-L-lysine-coated 96-well glass bottom plates at 15,800 cells/cm^2 and allowed to adhere overnight. For the screening, a total of 100 randomly organized compounds (TargetMol) were divided in 5 groups. Each group included an untreated condition, a vehicular DMSO control, and a known high-gigasome producing condition to comparatively study gigasome production rates. As a cell death control group, 500 nM Staurosporine was added to induce apoptosis. Cultures were incubated for 24 hours under gigasome inducing conditions at concentrations ranging between 10 nM and 10,000 nM. […] Cells remaining in the 96-well plates were assessed for viability using CellTiter-Glo (Promega).
Series [4] concerns neuronal cells. Briefly: Live microscopy of neuronal gigasome generation. It counts as cell-based, human. Particulars: 0.1 M MG-132; live time-lapse microscopy; compared to DMSO control. On the procedure: Cells were stained with Hoechst 33342 to visualize nuclei and nuclear material, CellTracker Green to visualize cytoplasm, and MitoTracker Deep Red to visualize mitochondria. Gigasome production was then induced with various drugs as described in Example 1. Cell cultures were imaged every 15-30 minutes under a time lapse for up to 48 hours (FIGS. 1A and 1B). For image analysis, ImageJ and Zeiss ZEN Blue software was used. Gigasomes were identified and quantified as distinct circular/spherical vesicles in the extracellular space of the neurons, between 1-20 μm in diameter. Gigasomes were identified based on having positive neuronal cytoplasmic signal and negative Hoechst 33342 signal. The presence of mitochondria in gigasomes was measured via respective fluorescent signal.
Time-lapse montages were produced and edited to show the formation of gigasomes from parent neuronal cells after treatment with […] MG-132 (FIGS. 1A and 1B). Gigasomes and parent cells were identified and tracked throughout the duration of the time lapse. In some experiments, gigasomes produced by parent cells in MG-132 treatment groups were identified.

Series [5] concerns neuronal cells. Description: Gigasome-mediated extraction of exogenously added Tau fibrils (live plated cells and culture media). Format: cell-based, human. On the procedure:
P301S mutant Tau fibrils conjugated to the fluorescent probe ATTO 488 (Table 12) were resuspended at 50 nM in reduced serum-containing media and added to half of the cell-containing wells for 3 hours at 37° C. Following Tau fibrils uptake, cells were trypsinized to remove excess Tau fibrils attached to the cell surface, labeled with Hoechst 33342 to visualize nuclei and CellTracker Orange to visualize the cytoplasm and plated in a new poly-L-lysine-coated 24-well glass bottom plates. Cells were allowed to attach (2-3 hours), before addition of 0.1 μM MG-132 in reduced serum-containing media for additional 18-20 h.
For analysis, 10-15×16-bit images per well were captured with a 20× objective and processed for analysis of gigasome production. Composite images were separated in the different channels. The background was subtracted from the green Tau fibrils cargo channel, as described Example 13.a and the signal thresholded using the “Yen” autothreshold algorithm. The cargo signal (integrated density) in the green channel was measured and normalized to the number of nuclei counted in each field in the Tau-F conditions. […] The quantity or distribution of objects obtained from the particle analysis was divided by the number of cells counted in each field to obtain a normalized quantity or distribution. […]

Peptide text beside a SMILES is read from it. * marks the point of attachment. Cbz = O=C(OCc1ccccc1)*

Regarding `CC(C)C[C@@H](C=O)NC(=O)[C@H](CC(C)C)NC(=O)[C@H](CC(C)C)NC(=O)OCc1ccccc1` [MG-132, reference compound] (Cbz-Leu-Leu-Leu-aldehyde), in the series with neuronal cells [1] (5 μM sodium arsenite, 0.2 μM MG-132, alone or combined, 24 h, compared to DMSO (FIG. 7B)), the HuR cytosolic signal entry is recorded as “increased”. Also, the “HuR+ve particle intensity distribution (gigasome diameter and brightness)” value in the series on neuronal cells [1] (FIG. 7E) was “larger in diameter and brighter”. Further, in the series on neuronal cells [1] (compared to sodium arsenite alone and DMSO (FIG. 7D)), the “HuR average intensity within gigasomes” value is “higher”. The Viability in series [2] is reported as 50-75%; in series [3] (10 nM), 100%; in series [3] (100 nM), 50-75%. Also, the gigasome production result in the series with neuronal cells [4] is given as “increase”. Besides, the “gigasomes per 1000 cells” value is given as “approximately 4.5 per 1000 cells” in the series with neuronal cells [5] (gigasomes harvested from cell culture media (FIG. 8E)) and “approximately 325 per 1000 cells” in the series on neuronal cells [5] (plated live cells, Tau fibrils 50 nM 3 h, MG-132 0.1 μM 18-20 h (FIG. 8C)).
